Experimental data taken from ChEMBL document CHEMBL1201862, “PubChem BioAssay data set” (2004).
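All cell lines were grown in 96-well plates and treated with compound for 48 hours. Abbreviation: GI50, concentration required for 50% inhibition of growth.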 Calls of active or inactive are those of the source. Rule as the data show it: active = GI50 up to about 1.1 µM and inactive = higher.

Tests used:
Test in all cases: inhibition of tumour cell growth, NCI panel, 48 h
A498 = tested on: A498
A549 = tested on: A549
ACHN = tested on: ACHN
CAKI-1 = tested on: CAKI-1
KM-20L2 = tested on: KM-20L2
KM12 = tested on: KM12
Malme-3M = tested on: Malme-3M
NCI-H460 = tested on: NCI-H460
OVCAR-4 = tested on: OVCAR-4
SF-295 = tested on: SF-295
SNB-19 = tested on: SNB-19
SR = tested on: SR
U-251 = tested on: U-251
IGROV-1 = tested on: IGROV-1
OVCAR-3 = tested on: OVCAR-3
OVCAR-8 = tested on: OVCAR-8
BT-549 = tested on: BT-549
MDA-N = tested on: MDA-N
NCI/ADR-RES = tested on: NCI/ADR-RES
T47D = tested on: T47D

Measured: GI50

Nc1ncnc2c1ncn2[C@]1(CO)C=C(CO)C(O)C1O (stereo not given in full)
inactive: A498 > 100 µM | A549 > 100 µM | ACHN > 100 µM | CAKI-1 > 100 µM | KM-20L2 > 100 µM | KM12 > 100 µM | Malme-3M > 100 µM | NCI-H460 > 100 µM | OVCAR-4 > 100 µM | SF-295 > 100 µM | SNB-19 > 100 µM | SR > 100 µM | U-251 > 100 µM

N#C/C(=C\c1ccc(O)c(O)c1)c1c(C#N)c(N)nn1-c1ccccc1
inactive: A498 2.76 µM | A549 10.1 µM | ACHN 8 µM | CAKI-1 1.59 µM | IGROV-1 4.17 µM | KM-20L2 38.1 µM | KM12 15.6 µM | Malme-3M 4.95 µM | NCI-H460 10.8 µM | OVCAR-3 2.04 µM | OVCAR-4 17.2 µM | OVCAR-8 5.82 µM | SF-295 15.7 µM | SNB-19 7.19 µM | U-251 5.36 µM

O=C(N/C(=C\c1ccc(/C=C(\NC(=O)c2ccccc2)c2nc3c(O)nc(S)nc3[nH]2)cc1)c1nc2c(O)nc(S)nc2[nH]1)c1ccccc1
inactive: A498 40.6 µM | A549 > 100 µM | ACHN 95.7 µM | CAKI-1 > 100 µM | IGROV-1 > 100 µM | KM-20L2 > 100 µM | KM12 > 100 µM | Malme-3M > 100 µM | NCI-H460 > 100 µM | OVCAR-3 > 100 µM | OVCAR-4 25.9 µM | OVCAR-8 74.6 µM | SF-295 > 100 µM | SNB-19 > 100 µM | U-251 > 100 µM

CC12O[C@H](c3ccccc3)[C@H](c3ccccc3)N1C(=O)C1(C(=O)OCc3ccccc3)CC12 (stereo not given in full)
inactive: A498 > 100 µM | A549 22.3 µM | ACHN 60.3 µM | CAKI-1 > 100 µM | IGROV-1 > 100 µM | KM-20L2 25.1 µM | KM12 91 µM | Malme-3M > 100 µM | NCI-H460 > 100 µM | OVCAR-3 > 100 µM | OVCAR-4 79.1 µM | OVCAR-8 92.3 µM | SF-295 > 100 µM | SNB-19 > 100 µM

O/N=C1/CCC/C1=C\c1ccccc1
inactive: A549 > 100 µM | ACHN > 100 µM | CAKI-1 > 100 µM | IGROV-1 > 100 µM | KM-20L2 > 100 µM | KM12 > 100 µM | Malme-3M > 100 µM | NCI-H460 > 100 µM | OVCAR-3 > 100 µM | OVCAR-4 > 100 µM | OVCAR-8 > 100 µM | SF-295 > 100 µM | SNB-19 > 100 µM | SR 12.4 µM | U-251 > 100 µM

CCOC(=O)[C@H]1Nc2ccc(Cl)cc2[C@H]2c3ccccc3O[C@H]21
inactive: A549 79.4 µM | ACHN > 100 µM | CAKI-1 > 100 µM | IGROV-1 > 100 µM | KM-20L2 > 100 µM | KM12 93.5 µM | NCI-H460 > 100 µM | OVCAR-3 80.4 µM | OVCAR-4 54.1 µM | OVCAR-8 > 100 µM | SF-295 72.1 µM | SNB-19 > 100 µM | SR 94.8 µM | U-251 > 100 µM

O=[N+]([O-])c1ccccc1/C=N/C12CC3CC(CC(C3)C1)C2
inactive: A498 > 100 µM | A549 > 100 µM | ACHN > 100 µM | CAKI-1 49.5 µM | IGROV-1 > 100 µM | KM-20L2 51.1 µM | KM12 37.3 µM | Malme-3M 66.1 µM | NCI-H460 > 100 µM | OVCAR-3 32.3 µM | OVCAR-4 87.7 µM | OVCAR-8 75 µM | SF-295 > 100 µM | SNB-19 49.9 µM | U-251 > 100 µM

CC(C)COC1Sc2ccccc2S1
inactive: A549 20.5 µM | ACHN 15.7 µM | CAKI-1 16.3 µM | IGROV-1 5.35 µM | KM-20L2 17.5 µM | Malme-3M 23.6 µM | NCI-H460 7.85 µM | OVCAR-3 19.6 µM | OVCAR-4 23.1 µM | OVCAR-8 29.1 µM | SF-295 16.4 µM | SNB-19 18.1 µM | U-251 18.7 µM

COc1ccc(NC2C(=O)C3(C)CCC2C3(C)C)cc1 (stereo not given)
inactive: A498 > 100 µM | A549 > 100 µM | ACHN > 100 µM | BT-549 69 µM | CAKI-1 > 100 µM | IGROV-1 > 100 µM | KM12 > 100 µM | MDA-N > 100 µM | Malme-3M > 100 µM | NCI-H460 > 100 µM | NCI/ADR-RES > 100 µM | OVCAR-3 > 100 µM | OVCAR-4 72.9 µM | OVCAR-8 > 100 µM | SF-295 > 100 µM | SNB-19 > 100 µM | SR 74.8 µM | T47D > 100 µM | U-251 > 100 µM

CCCOc1ccc(/C=C/C2=[N+](CCO)CCO2)cc1
inactive: A498 > 100 µM | A549 > 100 µM | ACHN > 100 µM | BT-549 > 100 µM | CAKI-1 > 100 µM | IGROV-1 > 100 µM | KM12 > 100 µM | MDA-N > 100 µM | Malme-3M > 100 µM | NCI-H460 > 100 µM | NCI/ADR-RES > 100 µM | OVCAR-3 > 100 µM | OVCAR-4 > 100 µM | OVCAR-8 > 100 µM | SF-295 > 100 µM | SNB-19 > 100 µM | SR > 100 µM | T47D > 100 µM | U-251 > 100 µM

Cc1ccc(S(=O)(=O)N/N=C2/CCCOC2)cc1
inactive: A498 > 100 µM | A549 > 100 µM | ACHN > 100 µM | BT-549 > 100 µM | CAKI-1 > 100 µM | IGROV-1 > 100 µM | KM12 > 100 µM | MDA-N > 100 µM | Malme-3M > 100 µM | NCI-H460 > 100 µM | NCI/ADR-RES > 100 µM | OVCAR-3 > 100 µM | OVCAR-4 > 100 µM | OVCAR-8 > 100 µM | SF-295 > 100 µM | SNB-19 > 100 µM | SR > 100 µM | T47D > 100 µM | U-251 > 100 µM

O=C(c1ccccc1)c1sc2c(=O)c(C(=O)c3ccccc3)c(C(=O)c3ccccc3)sc2c(=O)c1C(=O)c1ccccc1
inactive: A498 > 100 µM | A549 > 100 µM | ACHN 51.9 µM | BT-549 37.7 µM | CAKI-1 18.9 µM | IGROV-1 15.6 µM | KM12 > 100 µM | MDA-N 32.2 µM | Malme-3M 75.7 µM | NCI-H460 > 100 µM | NCI/ADR-RES 24.5 µM | OVCAR-3 98.6 µM | OVCAR-4 > 100 µM | OVCAR-8 35.4 µM | SF-295 96.6 µM | SNB-19 55.3 µM | SR 4.88 µM | T47D 47.5 µM | U-251 44.3 µM
